{"source": "paper PMC4823954", "about": "“From fighting depression to conquering tumors: a novel tricyclic thiazepine compound as a tubulin polymerization inhibitor” (Cell Death & Disease, 2016)", "key": {"[1]": {"biological_target": "T1, KIT(A829P) (Homo sapiens, UniProt P10721, A829P)", "T1 construct": "purchased DiscoveRx KINOMEscan", "T1 sequence (P10721 26-976 A829P)": "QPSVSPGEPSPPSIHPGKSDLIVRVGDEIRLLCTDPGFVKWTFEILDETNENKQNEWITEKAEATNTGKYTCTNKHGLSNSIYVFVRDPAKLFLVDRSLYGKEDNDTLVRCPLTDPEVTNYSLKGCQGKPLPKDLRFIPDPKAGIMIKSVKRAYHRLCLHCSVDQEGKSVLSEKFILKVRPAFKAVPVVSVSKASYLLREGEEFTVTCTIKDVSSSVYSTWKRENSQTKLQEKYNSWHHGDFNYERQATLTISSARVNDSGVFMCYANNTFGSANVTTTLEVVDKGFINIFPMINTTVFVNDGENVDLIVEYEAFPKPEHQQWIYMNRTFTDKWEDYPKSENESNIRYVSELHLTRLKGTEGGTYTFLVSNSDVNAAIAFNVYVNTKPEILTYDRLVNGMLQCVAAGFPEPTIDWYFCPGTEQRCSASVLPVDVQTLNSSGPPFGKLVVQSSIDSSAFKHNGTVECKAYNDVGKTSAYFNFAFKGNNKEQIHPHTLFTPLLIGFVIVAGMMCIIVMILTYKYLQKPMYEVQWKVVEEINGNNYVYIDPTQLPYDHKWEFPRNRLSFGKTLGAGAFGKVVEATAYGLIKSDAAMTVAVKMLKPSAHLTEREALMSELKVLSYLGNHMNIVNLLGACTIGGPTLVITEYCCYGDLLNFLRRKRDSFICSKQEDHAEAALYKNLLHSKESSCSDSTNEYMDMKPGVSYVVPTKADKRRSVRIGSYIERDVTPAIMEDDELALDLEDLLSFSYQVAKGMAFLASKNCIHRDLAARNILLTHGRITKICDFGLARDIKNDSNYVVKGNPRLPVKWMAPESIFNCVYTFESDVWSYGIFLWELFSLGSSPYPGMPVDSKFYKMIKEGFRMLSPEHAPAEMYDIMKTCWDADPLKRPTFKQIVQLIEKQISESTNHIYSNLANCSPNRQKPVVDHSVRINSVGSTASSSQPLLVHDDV", "test": "KINOMEscan", "assay_type": "binding", "details": "read-out: % Ctrl"}, "[2]": {"test_system": "NHFB", "test": "Cell viability assay (sulforhodamine B)", "assay_type": "cell-based", "details": "Fibroblast; NHFB normal human fibroblasts, 72 h", "method": "(§1) All biological reagents and solvents were obtained from commercial suppliers and used as recommended. The human NSCLC cell line H460 and P-gp-overexpressing drug-resistant cell line H460TaxR were cultured in RPMI-1640 medium supplemented with 10% fetal bovine serum, 100 units/ml penicillin and […] streptomycin. The NHFB cell line NHFB was cultured in DMEM with the same supplements. All cells were maintained in a 37 °C incubator with 95% humidity and 5% CO2.\n(§2) The cell viability was determined using the sulforhodamine B assay.[64] In brief, cells (4000 cells in 100 μl medium) were seeded in 96-well culture plates and incubated for 24 h. The cells were treated with the compounds or with an equal volume (0.1%) of DMSO for 72 h. The cell viability was calculated using the following formula: cell viability=Atreatment/Acontrol. The EC50 values were determined using the Sigma Plot 10.0 software package (Systat Software Inc., San Jose, CA, USA)."}, "[3]": {"biological_target": "T2, ABL1(F317I)-phosphorylated (Homo sapiens, UniProt P00519, F317I)", "T2 construct": "purchased DiscoveRx KINOMEscan", "test": "KINOMEscan", "assay_type": "binding", "details": "read-out: % Ctrl"}, "[4]": {"test_system": "EGFR(L747-T751del,Sins)", "test": "KINOMEscan", "assay_type": "binding, human"}, "[5]": {"test_system": "NHFB cells", "test": "Cell cycle and apoptosis analysis", "assay_type": "cell-based, human", "details": "2 μM"}, "[6]": {"test_system": "H460TaxR", "test": "Cell viability assay (sulforhodamine B)", "assay_type": "cell-based, human", "details": "for EC50: Homo sapiens, H460/TaxR", "method": "as §1, §2"}, "[7]": {"test_system": "H460", "test": "Cell viability assay (sulforhodamine B)", "assay_type": "cell-based, human", "details": "H460 cells, 72 h", "method": "as §1, §2"}, "[8]": {"biological_target": "T3, EGFR(T790M) (Homo sapiens, UniProt P00533, T790M)", "T3 construct": "purchased DiscoveRx KINOMEscan", "T3 sequence (P00533 25-1210 T790M)": "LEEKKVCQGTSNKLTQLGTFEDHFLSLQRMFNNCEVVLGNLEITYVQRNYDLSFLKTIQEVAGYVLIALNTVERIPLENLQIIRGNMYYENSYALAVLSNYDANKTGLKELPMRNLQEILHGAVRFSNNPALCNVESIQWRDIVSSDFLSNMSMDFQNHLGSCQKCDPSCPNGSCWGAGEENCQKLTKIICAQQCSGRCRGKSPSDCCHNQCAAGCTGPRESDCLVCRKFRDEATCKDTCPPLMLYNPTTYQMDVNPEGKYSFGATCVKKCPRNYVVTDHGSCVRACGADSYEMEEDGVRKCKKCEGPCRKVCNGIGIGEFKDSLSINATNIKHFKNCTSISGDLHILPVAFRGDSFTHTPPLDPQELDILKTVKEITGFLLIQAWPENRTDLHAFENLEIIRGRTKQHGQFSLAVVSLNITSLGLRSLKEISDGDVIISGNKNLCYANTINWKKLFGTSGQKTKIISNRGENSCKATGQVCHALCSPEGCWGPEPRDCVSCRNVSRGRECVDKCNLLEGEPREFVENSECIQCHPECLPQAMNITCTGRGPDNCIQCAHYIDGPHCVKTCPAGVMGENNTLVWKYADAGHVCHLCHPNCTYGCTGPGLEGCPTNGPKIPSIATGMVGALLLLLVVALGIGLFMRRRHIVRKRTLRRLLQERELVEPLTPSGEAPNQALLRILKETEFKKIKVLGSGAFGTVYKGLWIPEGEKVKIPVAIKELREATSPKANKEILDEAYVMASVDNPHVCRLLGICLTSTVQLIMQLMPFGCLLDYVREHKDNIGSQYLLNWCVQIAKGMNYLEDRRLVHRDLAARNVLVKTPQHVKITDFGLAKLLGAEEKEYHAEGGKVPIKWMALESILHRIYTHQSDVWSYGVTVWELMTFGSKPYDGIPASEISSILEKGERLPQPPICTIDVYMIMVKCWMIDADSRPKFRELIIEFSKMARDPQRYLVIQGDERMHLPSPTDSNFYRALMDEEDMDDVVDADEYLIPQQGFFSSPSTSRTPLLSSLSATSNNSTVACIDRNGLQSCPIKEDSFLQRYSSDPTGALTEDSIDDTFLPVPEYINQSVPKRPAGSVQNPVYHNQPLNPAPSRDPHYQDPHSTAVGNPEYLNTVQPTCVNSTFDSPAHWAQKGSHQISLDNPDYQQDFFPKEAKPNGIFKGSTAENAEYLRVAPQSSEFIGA", "test": "KINOMEscan", "assay_type": "binding", "details": "read-out: % Ctrl"}, "[9]": {"test_system": "Caco-2", "test": "Caco-2 cell bi-directional transport assay", "assay_type": "in vitro ADME", "details": "Caco-2", "from_the_text": "As in vivo investigations are generally time consuming and expensive, it is advantageous to eliminate those compounds that are not suitable for animal experiments. One of the necessary steps is to screen the initial hits using assays testing their possible behaviors in vivo. To evaluate the drug-like properties of TBPT, a panel of in vitro assays was preformed (Table 1). The parallel artificial membrane permeability assay (PAMPA) was used to evaluate the cell permeability of the compounds. Compounds with a Pe >[…] are classified as highly permeable. […] The Caco-2 assay was used to predict the oral absorption values of the compounds in vivo. Compounds with a Caco-2 efflux ratio >2 may be subject to active efflux and should not be developed further. […] The half-life (T1/2) in human liver microsomes is used to predict the metabolism properties of compounds in vivo. […] A very long T1/2 (>24 h) increases the risk of cumulative toxicity and is not desirable. […] T1/2 in plasma indicates the stability of the drug in human blood; the high T1/2 values of these compounds indicated better stability in vivo. Plasma protein binding influences the distribution of drugs into body tissues, and compounds with high plasma protein binding (>99%) are limited in terms of the amount of free compound that are available to act on the targeted tissue.\nThe PAMPA and Caco-2 cell bi-directional transport assay of the derivatives were conducted as described in our previous report.[65], [66] The human liver microsome, plasma stability and plasma protein-binding assays were conducted following modified protocols reported by Cyprotex (Macclesfield, UK).[67], [68], [69], [70]"}, "[10]": {"biological_target": "T4, FLT3(D835H) (Homo sapiens, UniProt P36888, D835H)", "T4 construct": "purchased DiscoveRx KINOMEscan", "test": "KINOMEscan", "assay_type": "binding", "details": "read-out: % Ctrl"}, "[11]": {"biological_target": "T5, ABL1(Y253F)-phosphorylated (Homo sapiens, UniProt P00519, Y253F)", "T5 construct": "purchased DiscoveRx KINOMEscan", "test": "KINOMEscan", "assay_type": "binding", "details": "read-out: % Ctrl"}, "[12]": {"biological_target": "T6, ABL1(H396P)-phosphorylated (Homo sapiens, UniProt P00519, H396P)", "T6 construct": "purchased DiscoveRx KINOMEscan", "test": "KINOMEscan", "assay_type": "binding", "details": "read-out: % Ctrl"}, "[13]": {"test_system": "caspases 8, 9 and 3/7", "test": "Caspases activity assay in H460TaxR cells", "assay_type": "cell-based, human", "details": "2 μM, 6, 12 and 24 h", "method": "The activities of caspases 8, 9, and 3/7 in H460TaxR and H460 cells were examined via a fluorescence-based assay using Caspase-Glo 8, Caspase-Glo 9 Assay kits and Apo-ONE Homogeneous Caspase-3/7 Assay Kit (Promega, Madison, WI, USA). Cells (1 × 10^6 cells in 10 ml medium) were seeded in 10-cm dishes. After 24 h, the cells were treated with TBPT (2 μM) or DMSO for 6, 12 and 24 h. Then, the cells were washed in PBS and collected. Cell lysates were prepared conventionally in RIPA lysis buffer. Protein concentrations were determined using the BCA protein assay. Equal amounts (10 μg) of total protein of samples were added to 96-well culture plates containing 100 μl caspases 8, 9 and 3/7 activity working solution. After the samples were incubated for 1 h at RT, the fluorescence of each well was determined at 499 nm with an emission wavelength of 521 nm using a multimode plate reader (Victor X2, Perkin Elmer, Boston, MA, USA). The fluorescence intensities are proportional to the activities of caspases 8, 9 and 3/7."}, "[14]": {"biological_target": "T7, PIK3CA(E545A) (Homo sapiens, UniProt P42336, E545A)", "T7 construct": "purchased DiscoveRx KINOMEscan", "T7 sequence (P42336 whole entry E545A)": "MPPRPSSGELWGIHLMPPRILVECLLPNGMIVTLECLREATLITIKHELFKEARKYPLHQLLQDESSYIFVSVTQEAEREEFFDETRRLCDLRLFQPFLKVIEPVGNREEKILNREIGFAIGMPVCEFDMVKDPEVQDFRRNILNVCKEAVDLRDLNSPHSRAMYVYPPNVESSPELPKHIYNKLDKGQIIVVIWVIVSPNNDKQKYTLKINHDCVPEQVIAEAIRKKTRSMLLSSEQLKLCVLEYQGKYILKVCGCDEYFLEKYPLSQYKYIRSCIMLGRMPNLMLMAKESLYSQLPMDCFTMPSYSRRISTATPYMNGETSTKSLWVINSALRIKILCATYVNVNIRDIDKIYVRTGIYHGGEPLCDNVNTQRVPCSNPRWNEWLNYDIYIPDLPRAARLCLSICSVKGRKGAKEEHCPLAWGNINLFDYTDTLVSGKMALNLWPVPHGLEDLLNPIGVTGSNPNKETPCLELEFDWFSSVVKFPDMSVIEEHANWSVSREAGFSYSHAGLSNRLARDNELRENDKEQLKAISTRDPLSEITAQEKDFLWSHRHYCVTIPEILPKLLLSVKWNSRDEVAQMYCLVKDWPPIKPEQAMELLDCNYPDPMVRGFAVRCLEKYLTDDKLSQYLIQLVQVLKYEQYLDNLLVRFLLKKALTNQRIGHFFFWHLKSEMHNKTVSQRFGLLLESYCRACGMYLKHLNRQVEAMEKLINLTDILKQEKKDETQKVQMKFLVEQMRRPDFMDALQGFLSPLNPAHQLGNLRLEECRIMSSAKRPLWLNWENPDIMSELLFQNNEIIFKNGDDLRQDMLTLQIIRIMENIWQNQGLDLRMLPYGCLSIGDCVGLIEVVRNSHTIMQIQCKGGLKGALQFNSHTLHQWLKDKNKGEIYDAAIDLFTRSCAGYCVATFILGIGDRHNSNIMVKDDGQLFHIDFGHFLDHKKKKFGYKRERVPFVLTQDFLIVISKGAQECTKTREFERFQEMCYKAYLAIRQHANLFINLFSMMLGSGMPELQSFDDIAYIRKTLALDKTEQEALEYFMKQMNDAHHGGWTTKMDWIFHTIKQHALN", "test": "KINOMEscan", "assay_type": "binding", "details": "read-out: % Ctrl"}, "[15]": {"test_system": "H460TaxR xenograft", "test": "NSCLC xenograft tumor growth inhibition", "assay_type": "in vivo", "details": "H460TaxR xenografted mice; TBPT 60 mg/kg i.v., five injections every other day", "method": "(§3) (a) The tumor volume was measured every other day. […] (b) Blood biochemical and hematological analyses."}, "[16]": {"test_system": "H460 xenograft", "test": "NSCLC xenograft tumor growth inhibition", "assay_type": "in vivo", "details": "H460 xenografted mice; TBPT 60 mg/kg i.v., five injections every other day", "method": "as §3"}, "[17]": {"biological_target": "T8, ABL1(F317L)-phosphorylated (Homo sapiens, UniProt P00519, F317L)", "T8 construct": "purchased DiscoveRx KINOMEscan", "test": "KINOMEscan", "assay_type": "binding", "details": "read-out: % Ctrl"}}, "note": "Several values for one entry are separate records, joined by “and”; a condition that tells them apart may be missing. Equal entries are not always repeated.", "data": [{"smiles": "Cc1ccc(C2=Nc3cccnc3S(=O)(=O)c3ccccc32)cc1", "note": "[TBPT, 6-(p-tolyl)benzo[f] pyrido[2,3-b][1,4] thiazepine 11,11-dioxide]", "values": [{"measurement": "remaining binding at 5 µM", "setting": "[1]; 5 μM", "result": 95, "unit": "%"}, {"measurement": "remaining binding at 10 µM", "setting": "[1]; 10 μM", "result": 96, "unit": "%"}, {"measurement": "EC50", "setting": "[2]", "result": "> 100000", "unit": "nM"}, {"measurement": "remaining binding at 5 µM", "setting": "[3]; 5 μM", "result": 78, "unit": "%"}, {"measurement": "remaining binding at 10 µM", "setting": "[3]; 10 μM", "result": 81, "unit": "%"}, {"measurement": "% Ctrl", "setting": "[4]; 5 μM", "result": 88, "unit": "%"}, {"measurement": "% Ctrl", "setting": "[4]; 10 μM", "result": 98, "unit": "%"}, {"measurement": "cell cycle arrest or apoptosis", "setting": "[5]", "result": "very little cell cycle arrest or apoptosis"}, {"measurement": "Resistance Folds", "setting": "[6]; EC50 in H460TaxR cells divided by EC50 in H460 cells", "result": 1.3}, {"measurement": "EC50", "setting": "[6]; 72 h, H460TaxR cells", "result": "< 500", "unit": "nM"}, {"measurement": "EC50", "setting": "[6]; H460TaxR(+Rev), Reversan (P-gp inhibitor)", "result": "610 ± 260", "unit": "nM"}, {"measurement": "EC50", "setting": "[7]", "result": "450 ± 190", "unit": "nM"}, {"measurement": "EC50", "setting": "[7]; Homo sapiens, NCI-H460, 72 h", "result": "< 500", "unit": "nM"}, {"measurement": "remaining binding at 5 µM", "setting": "[8]; 5 μM", "result": 100, "unit": "%"}, {"measurement": "remaining binding at 10 µM", "setting": "[8]; 10 μM", "result": 96, "unit": "%"}, {"measurement": "Efflux ratio (B2A/A2B)", "setting": "[9]", "result": "0.59±0.17"}, {"measurement": "remaining binding at 5 µM", "setting": "[10]; 5 μM", "result": 100, "unit": "%"}, {"measurement": "remaining binding at 10 µM", "setting": "[10]; 10 μM", "result": 97, "unit": "%"}, {"measurement": "remaining binding at 5 µM", "setting": "[11]; 5 μM", "result": 70, "unit": "%"}, {"measurement": "remaining binding at 10 µM", "setting": "[11]; 10 μM", "result": 95, "unit": "%"}, {"measurement": "remaining binding at 5 µM", "setting": "[12]; 5 μM", "result": 68, "unit": "%"}, {"measurement": "remaining binding at 10 µM", "setting": "[12]; 10 μM", "result": 92, "unit": "%"}, {"measurement": "activities of caspases 8, 9 and 3/7", "setting": "[13]", "result": "activated caspases 8, 9 and 3/7 in a time-dependent manner"}, {"measurement": "remaining binding at 5 µM", "setting": "[14]; 5 μM", "result": 100, "unit": "%"}, {"measurement": "remaining binding at 10 µM", "setting": "[14]; 10 μM", "result": 100, "unit": "%"}, {"measurement": "tumor growth inhibition, TGI", "setting": "[15]", "result": "66.7% and > 60%"}, {"measurement": "tumor growth inhibition, TGI", "setting": "[16]", "result": "62.9% and > 60%"}, {"measurement": "remaining binding at 5 µM", "setting": "[17]; 5 μM", "result": 72, "unit": "%"}, {"measurement": "remaining binding at 10 µM", "setting": "[17]; 10 μM", "result": 98, "unit": "%"}]}]}
